Laboratory results published in patent publication US20090311237A1, “Combination therapy using a soluble hyaluronidase and a bisphosphonate” (priority 2008, published 2009).
Like-named read-outs stand apart in the source and are kept apart here.

Test: Phase 1 Stage 1 clinical pharmacokinetics of SC ZA co-administered with rHuPH20
Type: in vivo, human
Details: human, serum, sc, serum; for concentration at 6 h: 6 h post infusion; for concentration at 8 h: 8 h post infusion; for concentration at 12 h: 12 h post infusion; for concentration at 0 h: 0 h post infusion; for concentration at 10 min: 10 min post infusion; for concentration at 0.5 h: 0.5 h post infusion; for concentration at 1 h: 1 h post infusion; for concentration at 2 h: 2 h post infusion; for concentration at 4 h: 4 h post infusion; for concentration at 24 h: 24 h post infusion; for concentration at 48 h: 48 h post infusion
Description: A pharmacokinetic study of zoledronic acid (ZA) co-administered with rHuPH20 in human subjects was conducted. The primary objective of the study was to determine the bioavailability of zoledronic acid dosed via subcutaneous (SC) co-administration with human recombinant hyaluronidase PH20 (rHuPH20). […] The patients were administered the prescribed dosage formulations as follows: Cohorts 1-5 were administered a single subcutaneous infusion in a dosage volume of 100 ml at a rate of 3 mL/min. […] The dosing solution is administered via needle or catheter into the SC space of the left anterior thigh (midway between the anterior iliac crest and the cephalad border of the patella). For cohorts 1-5, the dosing solutions were administered by a controlled rate infusion pump at approximately 3 mL/minute. […] The dosing solutions were administered by syringe push bolus injection. […] Serum concentration of ZA was determined using a qualified LC-MS-MS assay after derivatization with diazomethane (Zhu, L S et al. (2006) Rapid Commun. […] The assay range was from 2.0 to 400 ng/mL with a lower limit of quantitation (LLOQ) at 2.0 ng/mL. […] Non-compartmental analysis was used for derivation of primary and secondary pharmacokinetic (PK) parameters. […] Summary statistics (mean, standard deviation, and median) were calculated using JMP or Microsoft Excel.

[1] = ZA 0.5 mg SC infusion + 24000 Units rHuPH20, n=3, read-out: Median Conc.
[2] = ZA 0.5 mg SC infusion + 24000 Units rHuPH20, individual subjects, read-out: Zoledronic Acid Concentration
[3] = ZA 0.5 mg SC infusion + 24000 Units rHuPH20, n=3, read-out: Mean Conc.
[4] = ZA 1 mg SC infusion + 24000 Units rHuPH20, individual subjects, read-out: Zoledronic Acid Concentration
[5] = ZA 1 mg SC infusion + 24000 Units rHuPH20, n=3, read-out: Mean Conc.
[6] = ZA 1 mg SC infusion + 24000 Units rHuPH20, n=3, read-out: Median Conc.
[7] = ZA 2 mg SC infusion + 24000 Units rHuPH20, individual subjects, read-out: Zoledronic Acid Concentration
[8] = ZA 2 mg SC infusion + 24000 Units rHuPH20, n=3, read-out: Mean Conc.
[9] = ZA 2 mg SC infusion + 24000 Units rHuPH20, n=3, read-out: Median Conc.
[10] = ZA 5 mg SC infusion + 24000 Units rHuPH20, n=3, read-out: Mean Conc.
[11] = ZA 5 mg SC infusion + 24000 Units rHuPH20, n=3, read-out: Median Conc.
[12] = ZA 5 mg SC infusion + 24000 Units rHuPH20, individual subjects, read-out: Zoledronic Acid Concentration

Compound: O=P(O)(O)C(O)(Cn1ccnc1)P(=O)(O)O [ZA, 1-hydroxy-2-(1H-imidazol-1-yl)ethylidene-1,1-bisphosphonic acid]
- concentration at 6 h [1]: 2.53 ng/mL
- concentration at 8 h [2]: 1.19 ng/mL
- concentration at 8 h [3]: 1.32 ng/mL
- concentration at 8 h [1]: 1.34 ng/mL
- concentration at 12 h [2]: 0.52 ng/mL
- concentration at 12 h [3]: 0.54 ng/mL
- concentration at 12 h [1]: 0.55 ng/mL
- concentration at 0 h [4]: 28.4 ng/mL
- concentration at 0 h [5]: 20.5 ng/mL
- concentration at 0 h [6]: 17.9 ng/mL
- concentration at 10 min [4]: 32.1 ng/mL
- concentration at 10 min [5]: 27.2 ng/mL
- concentration at 10 min [6]: 25 ng/mL
- concentration at 0.5 h [4]: 33.4 ng/mL
- concentration at 0.5 h [5]: 28.1 ng/mL
- concentration at 0.5 h [6]: 28 ng/mL
- concentration at 1 h [4]: 29.9 ng/mL
- concentration at 1 h [5]: 25.5 ng/mL
- concentration at 1 h [6]: 27.2 ng/mL
- concentration at 2 h [4]: 24 ng/mL
- concentration at 2 h [5]: 19.6 ng/mL
- concentration at 2 h [6]: 17.7 ng/mL
- concentration at 4 h [4]: 13.3 ng/mL
- concentration at 4 h [5]: 10.3 ng/mL
- concentration at 4 h [6]: 10.2 ng/mL
- concentration at 6 h [4]: 5.48 ng/mL
- concentration at 6 h [5]: 4.9 ng/mL
- concentration at 6 h [6]: 5.47 ng/mL
- concentration at 8 h [4]: 2.44 ng/mL
- concentration at 8 h [5]: 2.69 ng/mL
- concentration at 8 h [6]: 2.46 ng/mL
- concentration at 12 h [4]: 1.02 ng/mL
- concentration at 12 h [5]: 1.09 ng/mL
- concentration at 12 h [6]: 1.02 ng/mL
- concentration at 24 h [4]: 0.56 ng/mL
- concentration at 24 h [5]: 0.52 ng/mL
- concentration at 24 h [6]: 0.51 ng/mL
- concentration at 0 h [7]: 33.3 ng/mL
- concentration at 0 h [8]: 37.9 ng/mL
- concentration at 0 h [9]: 39.6 ng/mL
- concentration at 10 min [7]: 52.5 ng/mL
- concentration at 10 min [8]: 48.3 ng/mL
- concentration at 10 min [9]: 46.3 ng/mL
- concentration at 0.5 h [7]: 59.8 ng/mL
- concentration at 0.5 h [8]: 51.9 ng/mL
- concentration at 0.5 h [9]: 48.6 ng/mL
- concentration at 1 h [7]: 57.7 ng/mL
- concentration at 1 h [8]: 56.5 ng/mL
- concentration at 1 h [9]: 57.7 ng/mL
- concentration at 2 h [7]: 42.5 ng/mL
- concentration at 2 h [8]: 41.6 ng/mL
- concentration at 2 h [9]: 42.2 ng/mL
- concentration at 4 h [7]: 17.5 ng/mL
- concentration at 4 h [8]: 20.3 ng/mL
- concentration at 4 h [9]: 20.3 ng/mL
- concentration at 6 h [7]: 6.43 ng/mL
- concentration at 6 h [8]: 7.69 ng/mL
- concentration at 6 h [9]: 7.71 ng/mL
- concentration at 8 h [7]: 3.15 ng/mL
- concentration at 8 h [8]: 3.77 ng/mL
- concentration at 8 h [9]: 3.34 ng/mL
- concentration at 12 h [7]: 1.5 ng/mL
- concentration at 12 h [8]: 1.74 ng/mL
- concentration at 12 h [9]: 1.64 ng/mL
- concentration at 24 h [7]: 0.78 ng/mL
- concentration at 24 h [8]: 0.87 ng/mL
- concentration at 24 h [9]: 0.85 ng/mL
- concentration at 48 h [7]: 0.62 ng/mL
- concentration at 48 h [8]: 0.21 ng/mL
- concentration at 0 h [10]: 88.6 ng/mL
- concentration at 0 h [11]: 82.3 ng/mL
- concentration at 10 min [12]: 121 ng/mL
- concentration at 10 min [10]: 110 ng/mL
- concentration at 10 min [11]: 121 ng/mL
- concentration at 0.5 h [12]: 130 ng/mL
- concentration at 0.5 h [10]: 125 ng/mL
- concentration at 0.5 h [11]: 130 ng/mL
- concentration at 1 h [12]: 124 ng/mL
- concentration at 1 h [10]: 118 ng/mL
- concentration at 1 h [11]: 116 ng/mL
- concentration at 2 h [12]: 83.5 ng/mL
- concentration at 2 h [10]: 86.6 ng/mL
- concentration at 2 h [11]: 86.5 ng/mL
- concentration at 4 h [12]: 45.6 ng/mL
- concentration at 4 h [10]: 50 ng/mL
- concentration at 4 h [11]: 45.6 ng/mL
- concentration at 6 h [12]: 20.3 ng/mL
- concentration at 6 h [10]: 23.5 ng/mL
